Values belong to the molecule of their own block, whether it stands above or below them.
Molecular target: T1, GLUT1 (Homo sapiens, UniProt P11166)
T1 sequence (P11166 1-492): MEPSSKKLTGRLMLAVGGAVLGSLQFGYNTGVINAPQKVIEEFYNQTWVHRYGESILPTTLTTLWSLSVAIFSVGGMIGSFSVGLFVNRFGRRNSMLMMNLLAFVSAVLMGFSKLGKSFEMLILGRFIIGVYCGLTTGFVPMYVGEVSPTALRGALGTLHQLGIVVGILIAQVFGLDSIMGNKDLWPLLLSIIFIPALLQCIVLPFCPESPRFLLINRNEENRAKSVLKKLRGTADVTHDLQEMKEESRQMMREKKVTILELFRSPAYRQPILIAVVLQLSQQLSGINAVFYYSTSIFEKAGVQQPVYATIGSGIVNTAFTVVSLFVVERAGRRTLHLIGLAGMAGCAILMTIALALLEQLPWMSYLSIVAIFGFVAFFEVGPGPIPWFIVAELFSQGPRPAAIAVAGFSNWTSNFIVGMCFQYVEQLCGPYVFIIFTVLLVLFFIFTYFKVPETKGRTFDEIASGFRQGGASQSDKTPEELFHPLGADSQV
Test: Indirect measurement of GLUT1 activity by quantification of intracellular ATP levels (glucose induced ATP increase)
Type: cell-based
Set-up: endogenous in cells; host or cells: DLD1 or CHO-K1
Conditions: read-out: IC50 regarding glucose induced ATP increase (GLUT1 inhibition)
Method in brief: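 DLD1 or CHO-K1 cells were starved overnight in glucose-free medium with 1% FCS, then combined with an oxidative phosphorylation inhibitor. GLUT1 activity was read as glucose-induced ATP increase, GLUT2 as fructose-induced. Intracellular ATP was quantified by CellTiter-Glo luminescence.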

IC50: 1.2 nM
Compound: Cc1nn(Cc2ccc(F)cc2F)c(C)c1NC(=O)c1cc(C(N)=O)nc2cc(F)ccc12 [Example 1487]

IC50: 6.8 nM
Compound: Cc1nn(Cc2ccc(F)cc2F)c(C)c1NC(=O)c1cc(C(N)=O)nc2cccc(F)c12 [Example 1488]

IC50: 6 nM
Compound: Cc1nn(Cc2ccc(F)cc2F)c(C)c1NC(=O)c1cc(C(N)=O)nc2cc(F)c(Cl)cc12 [Example 1489]

IC50: 3.7 nM
Compound: Cc1nn(Cc2ccc(F)cc2F)c(C)c1NC(=O)c1cc(C(N)=O)nc2ccc(Br)cc12 [Example 1490]

IC50: 41.5 nM
Compound: COc1ccccc1Cn1nc(C(F)(F)F)c(NC(=O)c2cc(C(N)=O)nc3cc(F)c(Cl)cc23)c1C [Example 1491]

IC50: 69.6 nM
Compound: COc1ccccc1Cn1nc(C(F)(F)F)c(NC(=O)c2cc(C(N)=O)nc3cccc(F)c23)c1C [Example 1493]

IC50: 8.3 nM
Compound: Cc1ccccc1Cn1nc(C(F)(F)F)c(NC(=O)c2cc(C(N)=O)nc3ccccc23)c1C [Example 1494]

IC50: 7.3 nM
Compound: Cc1ccccc1Cn1nc(C(F)(F)F)c(NC(=O)c2cc(C(N)=O)nc3cc(F)ccc23)c1C [Example 1495]

IC50: 6.2 nM
Compound: Cc1ccccc1Cn1nc(C(F)(F)F)c(NC(=O)c2cc(C(N)=O)nc3cccc(F)c23)c1C [Example 1496]

IC50: 4.3 nM
Compound: Cc1ccccc1Cn1nc(C(F)(F)F)c(NC(=O)c2cc(C(N)=O)nc3cc(F)c(Cl)cc23)c1C [Example 1497]

IC50: 20.1 nM
Compound: CCc1nc(Cn2nc(C)c(NC(=O)c3cc(C(N)=O)nc4ccccc34)c2C)no1 [Example 1500]

IC50: 93.2 nM
Compound: Cc1cc(Cn2nc(C)c(NC(=O)c3cc(C(N)=O)nc4ccccc34)c2C)no1 [Example 1503]

IC50: 42.4 nM
Compound: Cc1nn(Cc2ncco2)c(C)c1NC(=O)c1cc(C(N)=O)nc2ccccc12 [Example 1504]

IC50: 107 nM
Compound: COCc1noc(Cn2nc(C)c(NC(=O)c3cc(C(N)=O)nc4ccccc34)c2C)n1 [Example 1508]

IC50: 319 nM
Compound: Cc1nonc1Cn1nc(C)c(NC(=O)c2cc(C(N)=O)nc3ccccc23)c1C [Example 1515]

Second part, the molecule before the results:

Compound: COc1ccccc1Cn1nc(C(F)(F)F)c(NC(=O)c2cc(C(N)=O)nc3ccccc23)c1C [Example 1492]
IC50: 113 nM

Compound: Cc1c(NC(=O)c2cc(C(N)=O)nc3ccc(Br)cc23)c(C(F)(F)F)nn1Cc1ccc(OC(F)(F)F)cc1 [Example 1498]
IC50: 8 nM

Compound: CCc1nc(Cn2nc(C)c(NC(=O)c3cc(C(F)(F)F)nc4ccc(Br)cc34)c2C)no1 [Example 1499]
IC50: 13.4 nM

Compound: Cc1nn(Cc2nc(C3CC3)no2)c(C)c1NC(=O)c1cc(C(N)=O)nc2ccccc12 [Example 1501]
IC50: 73.7 nM

Compound: Cc1nn(Cc2nc(C3CC3)no2)c(C)c1NC(=O)c1cc(C(F)(F)F)nc2ccc(Br)cc12 [Example 1502]
IC50: 213 nM

Compound: Cc1cc(Cn2nc(C)c(NC(=O)c3cc(C(F)(F)F)nc4ccc(Br)cc34)c2C)no1 [Example 1505]
IC50: 323 nM

Compound: Cc1nn(Cc2ncco2)c(C)c1NC(=O)c1cc(C(F)(F)F)nc2ccc(Br)cc12 [Example 1506]
IC50: 35.1 nM

Compound: COCc1noc(Cn2nc(C)c(NC(=O)c3cc(C(F)(F)F)nc4ccc(Br)cc34)c2C)n1 [Example 1507]
IC50: 711 nM

Compound: CNC(=O)c1nc(Cn2nc(C)c(NC(=O)c3cc(C(N)=O)nc4ccccc34)c2C)no1 [Example 1509]
IC50: 16.3 nM

Compound: CCCS(=O)(=O)N1CCC(Cn2nc(C)c(NC(=O)c3cc(C(N)=O)nc4ccccc34)c2C)CC1 [Example 1510]
IC50: 20 nM

Compound: CCCCS(=O)(=O)N1CCC(Cn2nc(C)c(NC(=O)c3cc(C(N)=O)nc4ccccc34)c2C)CC1 [Example 1511]
IC50: 31.8 nM

Compound: Cc1nn(CC2CCN(S(=O)(=O)CCCC#N)CC2)c(C)c1NC(=O)c1cc(C(N)=O)nc2ccccc12 [Example 1512]
IC50: 105 nM

Compound: COCCCS(=O)(=O)N1CCC(Cn2nc(C)c(NC(=O)c3cc(C(N)=O)nc4ccccc34)c2C)CC1 [Example 1513]
IC50: 60.8 nM

Compound: Cc1nn(CC2CCN(S(=O)(=O)c3cccnc3)CC2)c(C)c1NC(=O)c1cc(C(N)=O)nc2ccccc12 [Example 1514]
IC50: 493 nM

Compound: Cc1nn(CC2CCN(S(=O)(=O)C3CC3)CC2)c(C)c1NC(=O)c1cc(C(N)=O)nc2ccccc12 [Example 1516]
IC50: 26.1 nM
